Earlier results in patent US8709720B2, “Methods and kits for predicting the responsiveness of hepatocellular carcinoma patients to 5-fluorouracil-based combination chemotherapy” (priority 2012, dated 2014).

System: advanced HCC
Conditions: advanced HCC patients, prior research / clinical trials

COc1cccc2c1C(=O)c1c(O)c3c(c(O)c1C2=O)C[C@@](O)(C(=O)CO)C[C@@H]3O[C@H]1C[C@H](N)[C@H](O)[C@H](C)O1 [doxorubicin]
response rate: 32%
